Assay results as given in paper PMC8296985, “A Covalent Calmodulin Inhibitor as a Tool to Study Cellular Mechanisms of K-Ras-Driven Stemness” (Frontiers in Cell and Developmental Biology, 2021).
pIC50, pKd, pKi: −log10 of the molar value.

Test system: Hs 578T
Experiment: 3D spheroid (tumorosphere) formation assay, low attachment, serum-free, alamarBlue
Type: cell-based
Details: Homo sapiens, 72 h; Hs 578T (H-RasG12D) 3D tumorosphere, 3 days treatment; read-out: IC50
Protocol: (§1) 3D spheroid formation assays were performed in 96-well low-attachment, suspension culture plates (cat. no. 655185, Cellstar, Greiner Bio-One) under serum-free condition. About 1,000 (MDA-MB-231, NCI-H358, and MIA PaCa-2) or 2,500 (Hs 578T) cells per well were seeded in 50 μl of either an RPMI medium (cat. no. 52400-025, Gibco, Thermo Fisher Scientific) (MDA-MB-231, A375, and NCI-H358) or DMEM (cat. no. 41965-039, Gibco, Thermo Fisher Scientific) (Hs 578T and MIA PaCa-2), containing 0.5% MethoCult (cat. no. SF H4636, Stemcell technologies), 1x B27 (cat. no. 17504044, Gibco, Thermo Fisher Scientific), 25 ng/ml EGF (cat. no. E9644, Sigma-Aldrich), and 25 ng/ml FGF (cat. no. RP-8628, Thermo Fisher Scientific). Cells were cultured for 3 days and then treated with compounds or vehicle control (DMSO 0.1% v/v in growth medium) for another 3 days. The cells were supplemented with a fresh growth medium on the third day together with the drug treatment. For knockdown experiments, cells were seeded in 12-well plates and treated with either 50 nM scrambled siRNA (cat. no. 1022076, QIAGEN) or indicated concentrations of siRNAs. Next day, cells were collected by trypsinization and re-plated into 96-well plates for 3D spheroid suspension culture.
(§2) Spheroid formation efficiency was analyzed by an alamarBlue assay reagent (cat. no. DAL1100, Thermo Fisher Scientific). A 10% final volume of the alamarBlue reagent was added to each well of the plate and incubated for 4 h at 37°C. Then the fluorescence intensity was measured using the FLUOstar OPTIMA plate reader (BMG Labtech, Germany) with an excitation wavelength of 560 ± 5 nm and an emission wavelength of 590 ± 5 nm.
(§3) To quantitatively profile the drug sensitivity with a more robust parameter than the IC50 or EC50 values, the drug sensitivity score (DSS) analysis was employed. DSS values are essentially normalized area under the curve (AUC) measures of dose-response inhibition data ([Yadav et al., 2014]). Drug response data files (in Excel) ready for online analysis were prepared according to the example file obtained from the DSS pipeline website, called Breeze^1 ([Potdar et al., 2020]). Either raw fluorescence intensity measurements or normalized % inhibition data (for BRET assay analysis) were uploaded.
(§4) DSS3 was employed to emphasize drugs that obtain their response area over a relatively wide dose window, as compared to drugs that show increased response only at the higher end of the concentration range. After logistic fitting of the dose-response inhibition data, the area under the curve (AUC) was determined as the exact solution. A 10% minimal activity threshold (t) was set. The maximum (Cmax) and minimum (Cmin) concentrations were used for screening of the inhibitors, with Cmax = x2 and x1 concentration with minimal activity t.

Row | Structure (SMILES) | pIC50
1 | Cc1c(N2CCCC2)c2c(=O)c(C(F)(F)F)cc3ccc(C(C)C)cc1c32 [Compound 11, 2-pyrrolidinylbenzazulen-3-one] | 5.28
2 | Cc1c(N2CCC2)c2c(=O)c(C(F)(F)F)cc3ccc(C(C)C)cc1c32 [Compound 12] | 5.07
3 | Cc1c(NCCO)c2c(=O)c(C(F)(F)F)cc3ccc(C(C)C)cc1c32 [Compound 13] | < 4.40
4 | Cc1c(N)c2c(=O)c(C(F)(F)F)cc3ccc(C(C)C)cc1c32 [Compound 14] | < 4.40

Same assay, conditions: Homo sapiens; Hs 578T 3D tumorosphere; log scale; read-out: logIC50 ± SD (converted)

Row | Structure (SMILES) | IC50 [µM]
5 | Cc1c(N2CCCC2)c2c(=O)c(C(F)(F)F)cc3ccc(C(C)C)cc1c32 [Compound 11, 2-pyrrolidinylbenzazulen-3-one] | 5.89
6 | Cc1c(N2CCC2)c2c(=O)c(C(F)(F)F)cc3ccc(C(C)C)cc1c32 [Compound 12] | 7.94

Same assay, conditions: Hs 578T 3D tumorosphere; log scale

Row | Structure (SMILES) | logIC50 ± SD
7 | Cc1c(NCCO)c2c(=O)c(C(F)(F)F)cc3ccc(C(C)C)cc1c32 [Compound 13] | Inconclusive
8 | Cc1c(N)c2c(=O)c(C(F)(F)F)cc3ccc(C(C)C)cc1c32 [Compound 14] | Inconclusive

Test system: MDA-MB-231
Experiment: as above
Type: cell-based
Details: Homo sapiens, 72 h; MDA-MB-231 (K-RasG13D) 3D tumorosphere, 3 days treatment; read-out: IC50
Protocol: as §1, §2, §3, §4

Row | Structure (SMILES) | pIC50
9 | Cc1c(N2CCCC2)c2c(=O)c(C(F)(F)F)cc3ccc(C(C)C)cc1c32 [Compound 11, 2-pyrrolidinylbenzazulen-3-one] | 4.81
10 | Cc1c(N2CCC2)c2c(=O)c(C(F)(F)F)cc3ccc(C(C)C)cc1c32 [Compound 12] | < 4.40
11 | Cc1c(NCCO)c2c(=O)c(C(F)(F)F)cc3ccc(C(C)C)cc1c32 [Compound 13] | < 4.40
12 | Cc1c(N)c2c(=O)c(C(F)(F)F)cc3ccc(C(C)C)cc1c32 [Compound 14] | < 4.40

Same assay, conditions: Homo sapiens; MDA-MB-231 3D tumorosphere; log scale; read-out: logIC50 ± SD (converted)

Row | Structure (SMILES) | IC50 [µM]
13 | Cc1c(N2CCCC2)c2c(=O)c(C(F)(F)F)cc3ccc(C(C)C)cc1c32 [Compound 11, 2-pyrrolidinylbenzazulen-3-one] | 15.5

Same assay, conditions: MDA-MB-231 3D tumorosphere; log scale

Row | Structure (SMILES) | logIC50 ± SD
14 | Cc1c(N2CCC2)c2c(=O)c(C(F)(F)F)cc3ccc(C(C)C)cc1c32 [Compound 12] | Inconclusive
15 | Cc1c(NCCO)c2c(=O)c(C(F)(F)F)cc3ccc(C(C)C)cc1c32 [Compound 13] | Inconclusive
16 | Cc1c(N)c2c(=O)c(C(F)(F)F)cc3ccc(C(C)C)cc1c32 [Compound 14] | Inconclusive

Same assay, conditions: MDA-MB-231 vs Hs 578T 3D spheroid formation, 0.6–40 μM; numbers above bars Fig. 1A,B

Row | Structure (SMILES) | KRAS/HRAS mutant cell line DSS3 ratio
17 | Cc1c(N2CCCC2)c2c(=O)c(C(F)(F)F)cc3ccc(C(C)C)cc1c32 [Compound 11, 2-pyrrolidinylbenzazulen-3-one] | 1.2
18 | Cc1c(N2CCC2)c2c(=O)c(C(F)(F)F)cc3ccc(C(C)C)cc1c32 [Compound 12] | 0.01
19 | Cc1c(NCCO)c2c(=O)c(C(F)(F)F)cc3ccc(C(C)C)cc1c32 [Compound 13] | 14.5
20 | Cc1c(N)c2c(=O)c(C(F)(F)F)cc3ccc(C(C)C)cc1c32 [Compound 14] | 4.7

Test system: K-RasG12V
Experiment: K-RasG12V nanoclustering-BRET assay in HEK293-EBNA cells
Type: cell-based
Details: 2-h treatment timeframe; OphA 10 μM, mevastatin 10 μM
Protocol: (§5) BRET assays were essentially performed as described by others ([Lavoie et al., 2013]; [Bery et al., 2018]). About 100,00–150,000 HEK293-EBNA ([Meissner et al., 2001]) cells were seeded per well of a 12-well plate in 1 ml of DMEM containing 10% FBS and 2 mM L-glutamine and were grown for 24 h. Next day, Rluc8-tagged donor and GFP2-tagged acceptor constructs were transfected into cells using a jetPRIME transfection reagent (cat. no. 114-75, Polyplus). Each well was transfected with about 1 μg of plasmid DNA using 3 μl of the jetPRIME reagent. For BRET donor saturation titration experiments, the concentration of donor plasmid (25 ng) was kept constant, and the concentration of acceptor plasmid was increased from 0 to 500 ng for RasG12V BRET pairs and 0–1,000 ng for K-Ras/CaM BRET pairs. The empty pcDNA3.1(-) plasmid was used to top-up the total DNA load per transfection. After 24 h of transfection, cells were treated with compounds or vehicle control (DMSO 0.2% v/v in a growth medium) at the specified concentration for 24 h or the stipulated time period in case of the time-course experiments. The cells from one well of a 12-well plate were collected, washed, and re-plated in PBS (cat. no. 14190-094, Gibco, Thermo Fisher Scientific) on flat bottom, white 96-well plates (cat. no. 236108, Nunc, Thermo Fisher Scientific) as four technical replicates containing 90 μl of cell suspension per well. Then fluorescence intensity followed by BRET readings were carried out on a Clariostar (BMG Labtech) plate reader at 25°C. The fluorescence intensity (RFU) of GFP2 was measured with excitation at 405 ± 10 nm and emission 515 ± 10 nm; it is proportional to the acceptor concentration [acceptor]. BRET readings were taken well by well by adding 10 μl of 100 μM coelenterazine 400a (cat. no. C-320, GoldBio), the Rluc8 substrate to each well (final concentration of 10 μM) using the injector present in the plate reader. Luminescence emission intensities were simultaneously recorded at 410 ± 40 nm (RLU, proportional to [donor]) and 515 ± 15 nm (BRET signal).
(§6) The raw BRET ratio was calculated as the BRET signal measured at 515 nm divided by the emission signal measured at 410 nm (RLU). The BRET ratio was obtained by subtracting the raw BRET ratio by a background BRET signal measured for cells expressing only the donor ([Bacart et al., 2008]) as indicated in the formula below:
(§7) For BRET donor saturation titration experiments, the BRET ratio was plotted against the [acceptor]/[donor] ratio. Technical repeat data points were averaged, and data points from all biological repeats were collected into one graph for subsequent fitting. The BRET ratio vs. relative expression data were fitted using a binding saturation equation in the Prism (GraphPad) software to obtain BRETmax and BRET50 using the equation y=BRETmax×x/BRET50+x , where x is the relative expression and y is the BRET ratio. BRETmax represents the maximum saturation BRET signal and depends on the structural parameters (distance, orientation) of the BRET complex. BRET50 corresponds to the ratio of the acceptor construct over the donor construct required to attain 50% of the maximum BRET signal and is a measure of the effective relative affinity between the interacting BRET pair ([Marullo and Bouvier, 2007]).
When applying the DSS analysis to nanoclustering-BRET data, we used mevastatin (10 μM) to obtain the asymptote parameter (a) for the maximal inhibition effect, as it prevents the prenylation of Ras proteins, their plasma membrane trafficking, and therefore nanoclustering. Otherwise, normalized BRET ratio data were converted to % inhibition and then subsequently uploaded onto the Breeze site (see text footnote 1).

Row | Structure (SMILES) | time-dependent change of K-RasG12V nanoclustering-BRET signal
21 | CC[C@H](C)C(=O)O[C@H]1CCC=C2C=C[C@H](C)[C@H](CC[C@@H]3C[C@@H](O)CC(=O)O3)[C@H]21 [mevastatin] | did not cause any reduction in the BRET signal

Same assay, conditions: 24 h; calmidazolium 20 μM, OphA 2.5 μM, prostratin 10 μM, mevastatin 10 μM, benzazulenones 20 μM

Row | Structure (SMILES) | K-Ras selective reduction of nanoclustering-BRET (K-Ras vs H-Ras)
22 | CC[C@H](C)C(=O)O[C@H]1CCC=C2C=C[C@H](C)[C@H](CC[C@@H]3C[C@@H](O)CC(=O)O3)[C@H]21 [mevastatin] | fairly indiscriminately
23 | CC(=O)O[C@@]12C[C@@H](C)[C@@]3(O)[C@@H](C=C(CO)C[C@]4(O)C(=O)C(C)=C[C@@H]34)[C@@H]1C2(C)C [prostratin] | 1.5 fold

Molecular target: T1, K-RasG12V/CaM (Homo sapiens, UniProt P0DP23)
T1 construct: expressed in transfected cells; host or cells: HEK293-EBNA
Experiment: Rluc8-K-RasG12V/GFP2-CaM interaction BRET in HEK293-EBNA cells
Type: cell-based
Details: calmidazolium 20 μM, prostratin 20 μM, OphA 5 μM
Protocol: as §5, §6, §7

Row | Structure (SMILES) | effect on Rluc8-K-RasG12V/GFP2-CaM BRET signal, single concentration
24 | CC(=O)O[C@@]12C[C@@H](C)[C@@]3(O)[C@@H](C=C(CO)C[C@]4(O)C(=O)C(C)=C[C@@H]34)[C@@H]1C2(C)C [prostratin] | did not have an effect

Test system: NCI-H358, MIA PaCa-2, MDA-MB-231 and A375 3D spheroids
Experiment: 3D spheroid growth benchmarking, DSS3, alamarBlue
Type: cell-based
Details: spheroids grown 72 h then treated 72 h
Protocol: as §1, §2, §3, §4

Row | Structure (SMILES) | effect on 3D spheroid growth
25 | C=CC(=O)N1CCN(c2nc(=O)n(-c3c(C)ccnc3C(C)C)c3nc(-c4c(O)cccc4F)c(F)cc23)[C@@H](C)C1 [AMG-510] | selectively and potently abolished the growth
26 | CC(=O)O[C@@]12C[C@@H](C)[C@@]3(O)[C@@H](C=C(CO)C[C@]4(O)C(=O)C(C)=C[C@@H]34)[C@@H]1C2(C)C [prostratin] | almost no effect on cell growth
27 | CCCS(=O)(=O)Nc1ccc(F)c(C(=O)c2c[nH]c3ncc(-c4ccc(Cl)cc4)cc23)c1F [vemurafenib] | selectively and potently abolished the growth

Molecular target: calmodulin (CaM) (Bos taurus, UniProt P62157)
Experiment: Fluorescence polarization assay, displacement of F-PMCA peptide from CaM
Details: not given

Row | Structure (SMILES) | pKd | pKi
28 | Cc1c(N2CCCC2)c2c(=O)c(C(F)(F)F)cc3ccc(C(C)C)cc1c32 [Compound 11, 2-pyrrolidinylbenzazulen-3-one] | 6.09 | 4.11
29 | Cc1c(N2CCC2)c2c(=O)c(C(F)(F)F)cc3ccc(C(C)C)cc1c32 [Compound 12] | 5.21 | 
30 | Cc1c(NCCO)c2c(=O)c(C(F)(F)F)cc3ccc(C(C)C)cc1c32 [Compound 13] | 4.21 | 
31 | Cc1c(N)c2c(=O)c(C(F)(F)F)cc3ccc(C(C)C)cc1c32 [Compound 14] | 4.67 | 

Same assay, conditions: read-out: k2/Ki second-order rate constant

Row | Structure (SMILES) | kinact/KI [M⁻¹ s⁻¹]
32 | Cc1c(N2CCCC2)c2c(=O)c(C(F)(F)F)cc3ccc(C(C)C)cc1c32 [Compound 11, 2-pyrrolidinylbenzazulen-3-one] | 1.11
